How the values were obtained:
Format in all cases: functional
Bemisia tabaci [1] = test: Insecticidal activity against Bemisia tabaci Bupro-SEL (sweet potato whitefly) from 10 generation buprofezin resistance assessed as mortality measured after 18 to 20 days
Bemisia tabaci [2] = test: Insecticidal activity against Bemisia tabaci Bupro-SEL (sweet potato whitefly) from 20 generation buprofezin resistance assessed as mortality measured after 18 to 20 days
Bemisia tabaci [3] = test: Insecticidal activity against Bemisia tabaci (sweet potato whitefly) susceptible Lab-PK assessed as mortality measured after 18 to 20 days
Bemisia tabaci [4] = test: Insecticidal activity against Bemisia tabaci UNSEL G11 (sweet potato whitefly) from 11 generation buprofezin resistance assessed as mortality measured after 18 to 20 days
Bemisia tabaci [5] = test: Insecticidal activity against Bemisia tabaci (sweet potato whitefly) from one generation buprofezin resistance G1 assessed as mortality measured after 18 to 20 days
Bemisia tabaci [6] = test: Insecticidal activity against Bemisia tabaci Bupro-SEL (sweet potato whitefly) female/Lab-PK male hybrid assessed as mortality measured after 18 to 20 days
Bemisia tabaci [7] = test: Insecticidal activity against Bemisia tabaci F1 (sweet potato whitefly) pooled assessed as mortality measured after 18 to 20 days
Bemisia tabaci [8] = test: Insecticidal activity against Bemisia tabaci F1 (sweet potato whitefly) pooled/Bupro-SEL hybrid assessed as mortality measured after 18 to 20 days
Bemisia tabaci [9] = test: Insecticidal activity against Bemisia tabaci Bupro-SEL (sweet potato whitefly) male/Lab-PK female hybrid assessed as mortality measured after 18 to 20 days

SMILES	LC50 (Bemisia tabaci [1])	LC50 (Bemisia tabaci [2])	LC50 (Bemisia tabaci [3])	LC50 (Bemisia tabaci [4])	LC50 (Bemisia tabaci [5])	LC50 (Bemisia tabaci [6])	LC50 (Bemisia tabaci [7])	LC50 (Bemisia tabaci [8])	LC50 (Bemisia tabaci [9])
C/C(=N\C#N)N(C)Cc1ccc(Cl)nc1 [ACETAMIPRID]	4.04 ugAi/ml	0.4 ugAi/ml	0.39 ugAi/ml	0.36 ugAi/ml	2.21 ugAi/ml	–	–	–	–
CC(C)N1C(=O)N(c2ccccc2)CS/C1=N\C(C)(C)C [BUPROFEZIN]	1400 ugAi/ml	115.2 ugAi/ml	0.2 ugAi/ml	0.25 ugAi/ml	1.41 ugAi/ml	5.11 ugAi/ml	4.86 ugAi/ml	62.6 ugAi/ml	4.41 ugAi/ml
O=[N+]([O-])/N=C1\NCCN1Cc1ccc(Cl)nc1 [IMIDACLOPRID]	2.18 ugAi/ml	0.17 ugAi/ml	0.09 ugAi/ml	0.2 ugAi/ml	1.29 ugAi/ml	–	–	–	–
CC(COc1ccc(Oc2ccccc2)cc1)Oc1ccccn1 (centres undefined) [PYRIPROXYFEN]	51.54 ugAi/ml	1.63 ugAi/ml	0.6 ugAi/ml	0.52 ugAi/ml	1.81 ugAi/ml	–	–	–	–
CCOC(=O)OC1=C(c2cc(C)ccc2C)C(=O)N[C@]12CC[C@@H](OC)CC2 [SPIROTETRAMAT]	1.04 ugAi/ml	0.11 ugAi/ml	0.17 ugAi/ml	0.1 ugAi/ml	0.7 ugAi/ml	–	–	–	–
